Reference: patent publication EP0617893B1, “Molluscicides” (SHELL INTE[…] […] B.V., priority 1993, dated 1994)
Like-named read-outs stand apart in the source and are kept apart here.

Columns and labels:
[1] = tested on: Deroceras reticulatum; assay: Oral toxicity bait test (pellets in petri-dish), percentage control; format: in vivo; details: 72 h; for mortality at 4 % strength: read-out: % control; for mortality at 2 % strength: 2 % active material in bait
Experimental: The molluscicidal activity of compounds used in the method of the invention was tested using, as a test mollusc, specimens of the adult grey field slug Deroceras reticulatum.
The oral toxicity of the compounds was assessed by presenting slugs with individually prepared experimental baits containing either 4% or 2% active material. These were compared with commercial baits containing 4% methiocarb (Draza) […] 6% metaldehyde (Slugit).
2 test pellets were placed onto a 5 cm filter-paper in the centre of a 9 cm plastic petri-dish. Two adults specimens of the slug Deroceras reticulatum were introduced into each dish and the pellets moistened with a few drops of water to make them attractive to eat. A minimum of the two replicates was used for each compound. Blank baits moistened with an equivalent volume of water were used as controls.
The dishes were then stored in a large glass tank maintained at 12 to 16°C and >95% relative humidity. Assessments of the number of slugs affected were made at intervals up to 3 days after treatment. Slugs were considered to be affected or controlled by the bait if they were incapable of normal body movements and could not right themselves within 2 minutes.
The molluscicidal activity of two compounds specified in European Patent Specification No. 437 784 A1, was tested against slugs, Deroceras reticulatum, using the test method given in Example 1 and bait containing 4% active material in each case. • Comparative A is the compound of Example 2 of EP-A-437 784 • Comparative B is the compound of Example 3 of EP-A-437 784.

[2] = tested on: slugs; assay: Systemic activity: lettuce root dip, cut leaves fed to slugs; format: in vivo; details: root dip 400 ppm
Experimental: The action via systemic application of the Compound Nos. 1, 3 and 4 was assessed in this Example.
Test solutions of the compounds were prepared by dissolving technical samples in 1 ml of acetone and making up to 50 ml with tap water. The roots of young 6 cm high lettuce plants were then washed clean with water and immersed in the test solution for a minimum of two days. For each bioassay individual leaves were cut from a lettuce plant and placed on a filter paper in a 9cm diameter petri-dish. 1 ml of water was pipetted onto each filter paper in order to keep the leaves reasonably moist during the assay. Two medium-sized slugs were introduced into each dish and the amount of leaf eaten and % control of slugs recorded over a two day period. The amount of compound applied as root dips was in the range of from 400 to 1000 ppm over a number of tests.

[3] = tested on: D. reticulatum; assay: Contact test: glass residue test; format: in vivo; details: Deroceras reticulatum, read-out: % affected D. reticulatum
Experimental: The contact action of Compounds Nos. 1, 3 and 4 was assessed in this Example, using a glass residue test.
The residual toxicity of compounds on glass was investigated by pipetting aliquots of an acetone/Triton X-100 test solution over the base of a 7 cm diameter glass petri-dish to achieve a concentration of 600 ppm. Four adult slugs (D. reticulatum) were introduced into each dish and slug mortality recorded over a 5 day period. Moistened sugar bran mix was provided as food 24 hours after exposure.

[4] = tested on: Milax budapestensis; assay: Bait test against a range of slug species; format: in vivo
Experimental: (§1) The action of Compound No. 1 was assessed against a wide range of slug species, and against snails of the genus Cepaea, with bait containing 2%, 4% and 6% active ingredient. The action of a 4% Draza (trade name for a sluggicide sold by Bayer AG and containing the carbamate molluscicide methiocarb) bait was also assessed.
(§2) The slug species utilised in the test were Milax budapestensis , a large slug which is a major pest of potatoes Deroceras reticulatum , grey field slug - a major field crop pest Arion hortensis , garden slug.

[5] = tested on: Arion hortensis; assay: Bait test against a range of slug species; format: in vivo
Experimental: as §1, §2

[6] = tested on: Deroceras reticulatum; assay: Bait test against a range of slug species; format: in vivo
Experimental: as §1, §2

[7] = tested on: snails of the genus Cepaea; assay: Bait test against snails; format: in vivo; details: bait containing 2%, 4% and 6% active ingredient
Experimental: as §1

[8] = statement of DE-A-4111389; cited from earlier work
[9] = 4 % active material in bait, assessments up to 3 days after treatment
[10] = bait containing 2%, 4% and 6% active ingredient
[11] = assessments up to 3 days after treatment

O=[N+]([O-])C=C1NCCN1Cc1cc(Cl)no1 [Compound No. 1]
mortality at 4 % strength [1, 9]: 100% | systemic activity [2]: Activity was observed | mortality at 600 ppm ([3]; 24 hours): 100% | mortality at 600 ppm ([3]; 48 hours): 75% | mortality at 600 ppm ([3]; 120 hours): 100% | effectiveness compared with 4% Draza bait ([4]; 4% bait): more effective than the 4% Draza bait | control of slugs [4, 10]: controlled | effectiveness compared with 4% Draza bait ([5]; 4% bait): more effective than the 4% Draza bait | control of slugs [5, 10]: controlled | effectiveness compared with 4% Draza bait ([6]; 4% bait): more effective than the 4% Draza bait | control of slugs [6, 10]: controlled | control of snails [7]: controlled

O=[N+]([O-])N=C1NCCN1Cc1ccc(Cl)nc1 [Compound No. 13, Imidacloprid]
molluscicidal effectiveness [8]: only a relatively poorly developed molluscicidal effectiveness | mortality at 4 % strength [1, 9]: 30%

O=[N+]([O-])N=C1NCCN1Cc1cc(Cl)no1 [compound 2]
mortality at 2 % strength [1, 11]: 50%

Cc1cc(CN2CCNC2=C[N+](=O)[O-])on1 [compound 3]
mortality at 2 % strength [1, 11]: 100% | systemic activity [2]: Activity was observed | mortality at 600 ppm ([3]; 24 hours): 75% | mortality at 600 ppm ([3]; 48 hours): 100% | mortality at 600 ppm ([3]; 120 hours): 100%

O=[N+]([O-])C=C1NCCN1Cc1cc(C(F)(F)F)no1 [compound 4]
mortality at 2 % strength [1, 11]: 100% | mortality at 600 ppm ([3]; 24 hours): 25% | mortality at 600 ppm ([3]; 48 hours): 0% | mortality at 600 ppm ([3]; 120 hours): 25%

O=[N+]([O-])C=C1NCCN1Cc1cc(Br)no1 [compound 5]
mortality at 2 % strength [1, 11]: 50%

O=[N+]([O-])N=C1NCCN1Cc1cc(Br)no1 [compound 6]
mortality at 2 % strength [1, 11]: 25%

Cc1cc(CN2CCSC2=C[N+](=O)[O-])on1 [compound 7]
mortality at 2 % strength [1, 11]: 100%

O=[N+]([O-])C=C1SCCN1Cc1cc(Cl)no1 [compound 8]
mortality at 2 % strength [1, 11]: 25%

O=[N+]([O-])C(=C1NCCN1Cc1cc(Cl)no1)[N+](=O)[O-] [compound 9]
mortality at 2 % strength [1, 11]: 50%

O=[N+]([O-])C(CSc1ccc(Cl)cc1)=C1NCCN1Cc1cc(Br)no1 [compound 10]
mortality at 2 % strength [1, 11]: 25%

Cc1cc(CN2CCNC2=N[N+](=O)[O-])on1 [compound 11]
mortality at 2 % strength [1, 11]: 100%

O=[N+]([O-])C=C1NCCN1Cc1ccc(Cl)nc1 [compound 12]
mortality at 4 % strength [1, 9]: 20%

O=[N+]([O-])C=C1NCCN1Cc1cnc(Cl)c(Cl)c1 [compound 14]
mortality at 4 % strength [1, 9]: 20%

O=[N+]([O-])N=C1NCCN1Cc1cnc(Cl)c(Cl)c1 [compound 15]
mortality at 2 % strength [1, 11]: 25%

O=[N+]([O-])C=C1SCCN1Cc1cnc(Cl)c(Cl)c1 [compound 16]
mortality at 2 % strength [1, 11]: 50%

O=[N+]([O-])C(CSCc1ccccc1)=C1NCCN1c1ccc(Cl)nc1 [compound 17]
mortality at 2 % strength [1, 11]: 25%

O=[N+]([O-])C=C1NCCN1Cc1ccc(F)c(F)c1F [compound 18]
mortality at 2 % strength [1, 11]: 25%

O=[N+]([O-])C=C1NCCN1Cc1cccc2ccccc12 [compound 20]
mortality at 2 % strength [1, 11]: 25%

Cc1ccc(CN2CCNC2=C[N+](=O)[O-])cc1[N+](=O)[O-] [compound 21]
mortality at 2 % strength [1, 11]: 25%

O=[N+]([O-])C=C1NCCN1Cc1ccc(C(F)(F)F)cc1 [compound 22]
mortality at 2 % strength [1, 11]: 50%

C=C(C)CN1CCCNC1=C[N+](=O)[O-] [compound 23]
mortality at 2 % strength [1, 11]: 25%

Cc1cc(CN2CCCNC2=C[N+](=O)[O-])on1 [compound 24]
mortality at 2 % strength [1, 11]: 25%

CNC(=O)Oc1cc(C)c(SC)c(C)c1 [methiocarb, reference compound]
mortality at 4 % strength [1]: 100%
